Data reported in patent US6906092B2, “Method of inhibiting matrix metalloproteinases” (Warner-Lambert Company, priority 1996, dated 2005).
Read-outs that look alike come from different tables or passages of the source.

What was measured:
[1] = biological target: MMP02 (GCD, recombinant gelatinase A catalytic domain) (Homo sapiens, UniProt P08253); experiment: Thiopeptolide assay, gelatinase A catalytic domain (GCD); type: biochemical; conditions: thiopeptolide substrate
Method: (§1) IC50 values were determined using a thiopeptolide substrate, Ac-Pro-Leu-Gly-thioester-Leu-Leu-Gly-OEt (Ye Q.-Z., Johnson L. L., Hupe D. J., and Baragi V., “Purification and Characterization of the Human Stromelysin Catalytic Domain Expressed in Escherichia coli,” Biochemistry, 1992;31:11231-11235). MMP01, MMP07, MMP09, and MMP13 activity was assayed in a method similar to MMP02 and MMP03 (SCD and GCD). MMP01 and MMP09 can be obtained from Washington University School of Medicine, St. Louis, Mo. MMP07 can be obtained in accordance with the known procedure set forth by Ye Q-Z, Johnson L. L., and Baragi V., “Gene Syntheses and Expression in E. coli for PUMP, a Human Matrix Metalloproteinase” Biochem. and Biophys. Res. Comm., 1992;186:143-149. MMP13 can be obtained in accordance with the known procedure set forth by Freije J. M. P., et al., “Molecular Cloning and Expression of Collegenase-3, a Novel Human Matrix Metalloproteinase Produced by Breast Carcinomas” J. Bio. Chem., 1994;269:16766-16773.
(§2) Hydrolysis of the thiopeptolide substrate Ac-Pro-Leu-Gly-thioester-Leu-Leu-Gly-OEt (Bachem) is used as the primary screen to determine IC50 values for MMP inhibitors. A 100 μL reaction contains 1 mM 5,5′-dithiobis(2-nitrobenzoic acid) (DTNB), 100 μM substrate, 0.1% Brij, enzyme, and inhibitor in the appropriate reaction buffer. Activated full-length enzymes are assayed at 5 nM, Stromelysin Catalytic Domain (SCD) at 10 nM, and Gelatinase A Catalytic Domain (GaCD) at 1 nM. Inhibitors are screened from 100 μM to 1 nM. Full-length enzymes are assayed in 50 mM HEPES, 10 mM CaCl2, pH 7.0; SCD in 50 mM MES, 10 mM CaCl2, pH 6.0; and GaCD in 50 mM MOPS, 10 mM CaCl2, 10 μM ZnCl2, pH 7.0.

[2] = biological target: T1, stromelysin catalytic domain (SCD) (Homo sapiens, UniProt P08254); experiment: Soluble proteoglycan assay (stromelysin natural substrate assay) SCD (PG); type: biochemical; conditions: solubilized proteoglycan substrate
T1 construct: SCD (stromelysin-1 catalytic domain); made in house; host or cells: Escherichia coli
Method: Soluble Proteoglycan Assay (Stromelysin Natural Substrate Assay) SCD (PG)
Solubilized proteoglycan substrate is prepared from bovine cartilage powder (Sigma) using the method described by Nagase and Woessner in Anal. Biochem., 1980;107:385-392. A 100 μL reaction contains 10 μg/mL proteoglycan, enzyme, and inhibitor in 50 mM MES, 10 mM CaCl2, pH 6.0. Activated full-length stromelysin or stromelysin catalytic domain (SCD) is assayed at 100 nM. Inhibitors are screened from 100 μM to 1 nM. The reaction is incubated at 37° C. for 3 hours then stopped with the addition of 1,10-phenanthroline at a final concentration of 1 mM. Reaction products are separated from undigested substrate using ultrafree-MC polysulfone microcons with a 300,000 molecular weight cut-off membrane (Millipore) and quantified using a modified […] (DMB) assay described by Farndale, Sayers, and Barrett in Connective Tissue Research, 1982;9:247-248. Absorbance is measured at 518 nm using 32 μg/mL DMB in a 1 mL reaction. The standard curve is constructed from 0 to 100 μg shark cartilage chondroitin sulfate C (Sigma).

gelatinase A = gelatinase A (Homo sapiens, UniProt P08253); experiment: Gelatin assay (gelatinase natural substrate assay) (Gel); type: biochemical
Method: Gelatin Assay (Gelatinase Natural Substrate Assay) (Gel)
Rat tail Type I collagen (Sigma) is denatured by heating at 95° C. for 20 minutes to prepare the gelatin substrate. A 50 μL reaction contains 1.12 mg/mL substrate, enzyme, inhibitor, and 80 μg/mL soy bean trypsin inhibitor as an inert internal standard in 50 mM MOPS, 10 mM CaCl2, 10 μM ZnCl2, pH 7.0. Activated full-length gelatinase A is assayed at 1 nM and gelatinase A catalytic domain (GaCD) at 10 nM. Inhibitors are screened from 100 μM to 1 nM. The reactions are incubated at 37° C. for 30 minutes then stopped with 50 μL at 2× Tricine gel loading buffer (Novex). Reaction products are separated from undigested substrate by electrophoresis on Tricine-SDS 10-20% polyacrylamide gradient gels (Novex). Protein bands are stained with Coomassie Brilliant Blue R and quantified using a Bio Image densitometer (Millipore). IC50 values are calculated from the disappearance of substrate using the sum of the top three bands of each reaction after normalization with the internal standard.

[3] = biological target: T2, MMP01 (fibroblast collagenase) (Homo sapiens, UniProt P03956); experiment: Thiopeptolide assay, MMP01; type: biochemical; conditions: thiopeptolide substrate
T2 construct: purchased Washington University School of Medicine, St. Louis, Mo
T2 sequence (P03956 100-469): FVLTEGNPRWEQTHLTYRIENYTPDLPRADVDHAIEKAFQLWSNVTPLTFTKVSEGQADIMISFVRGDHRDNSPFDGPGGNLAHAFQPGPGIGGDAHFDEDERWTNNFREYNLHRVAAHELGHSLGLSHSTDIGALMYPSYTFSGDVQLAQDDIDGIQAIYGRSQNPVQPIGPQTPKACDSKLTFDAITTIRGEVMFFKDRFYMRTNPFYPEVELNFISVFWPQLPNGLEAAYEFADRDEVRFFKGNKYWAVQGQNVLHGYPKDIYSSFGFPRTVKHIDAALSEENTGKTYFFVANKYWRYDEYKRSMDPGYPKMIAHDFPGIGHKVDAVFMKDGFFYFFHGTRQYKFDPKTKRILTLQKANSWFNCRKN
Method: as §1, §2

[4] = biological target: T3, MMP03 (SCD, stromelysin-1 catalytic domain) (Homo sapiens, UniProt P08254); experiment: Thiopeptolide assay, stromelysin-1 catalytic domain (SCD); type: biochemical; conditions: thiopeptolide substrate
T3 construct: SCD (stromelysin-1 catalytic domain); made in house; host or cells: Escherichia coli
Method: as §1, §2

[5] = MMP inhibitor bioassay (inhibitor plasma level after gavage); type: in vivo, rat; conditions: 50 mg/kg by gavage
Method: Animals are dosed by gavage with either vehicle or compound at 2, 10, or 50 mg/kg. Blood samples are collected from 3 to 4 animals from each dosing group at 1, 2, 4, 6, and 24 hour postdose, centrifuged, and the plasma immediately frozen at −20° C. Plasma protein is precipitated with an equal volume of acetonitrile and separated by centrifugation at room temperature. The supernate is evaporated to dryness and reconstituted to the original plasma volume with 50 mM Tris, pH 7.6. Ten-fold serial dilutions of the reconstituted plasma samples are prepared in 50 mM Tris, pH 7.6 for dose response assays using the appropriate thiopeptolide assay. […] All control samples are subjected to acetonitrile precipitation and analyzed with the thiopeptolide assay.

MMP13 (collagenase-3) = biological target: T4, MMP13 (collagenase-3) (Homo sapiens, UniProt P45452); experiment: Thiopeptolide assay, MMP13; type: biochemical; conditions: thiopeptolide substrate
T4 construct: made in house
Method: as §1, §2

MMP07 (matrilysin) = biological target: T5, MMP07 (matrilysin) (Homo sapiens, UniProt P09237); experiment: Thiopeptolide assay, MMP07; type: biochemical; conditions: thiopeptolide substrate
T5 construct: made in house; host or cells: E. coli
T5 sequence (P09237 95-267): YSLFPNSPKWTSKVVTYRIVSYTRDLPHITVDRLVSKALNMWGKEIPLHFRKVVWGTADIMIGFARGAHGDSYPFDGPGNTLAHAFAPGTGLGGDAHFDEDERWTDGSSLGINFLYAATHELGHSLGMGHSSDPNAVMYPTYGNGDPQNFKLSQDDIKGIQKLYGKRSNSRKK
Method: as §1, §2

[6] = catalytic domain, read-out: (GCD) MMP02 IC50
[7] = catalytic domain, read-out: (SCD) MMP03 IC50

T3 sequence (P08254 100-272 limits assumed): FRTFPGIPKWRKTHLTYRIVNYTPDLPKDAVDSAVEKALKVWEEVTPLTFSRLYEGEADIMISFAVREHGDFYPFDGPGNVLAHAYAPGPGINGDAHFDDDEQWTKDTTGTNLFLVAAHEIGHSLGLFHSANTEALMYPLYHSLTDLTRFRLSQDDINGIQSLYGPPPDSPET
Sequence of MMP02 (GCD, recombinant gelatinase A catalytic domain) (P08253 110-221 limits assumed): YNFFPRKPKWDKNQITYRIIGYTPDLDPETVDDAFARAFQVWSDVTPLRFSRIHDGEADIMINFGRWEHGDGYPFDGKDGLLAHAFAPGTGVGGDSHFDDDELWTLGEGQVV
Sequence of MMP02 (GCD, recombinant gelatinase A catalytic domain) (P08253 397-465 limits assumed): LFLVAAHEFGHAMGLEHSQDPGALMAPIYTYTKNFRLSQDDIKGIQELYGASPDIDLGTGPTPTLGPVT
T1 sequence (P08254 100-272 limits assumed): as the sequence (P08254 100-272 limits assumed) above

Row | IC50 [1, 6] [µM] | IC50 [4, 7] [µM] | Compound | other results
1 | 0.9 | – | O=C(O)[C@H](Cc1ccccc1)NS(=O)(=O)c1ccc2oc3ccccc3c2c1 [Example 3, (L)-2-(Dibenzofuran-2-sulfonylamino)-3-phenyl-propionic acid] | melting point: 196 to 198 °C
2 | 0.084 | – | CC(C)[C@H](NS(=O)(=O)c1ccc2oc3ccccc3c2c1)C(=O)O [Example 5, (L)-2-(Dibenzofuran-2-sulfonylamino)-3-methyl-butyric acid] | IC50 [2]: 8.9 µM; IC50 (gelatinase A): 0.58 µM; IC50 [3]: 19 µM; IC50 ([4]; Table 2, read-out: SCD (IC50)): 0.233 µM; Bioassay Peak (inhibitor plasma level) ([5]; peak): 82 µM; concentration at 24 h ([5]; rat, plasma, oral, 24 hours postdose): 0.18 µM; melting point: 163 to 165 °C; IC50 ([1]; Table 2, read-out: GCD (IC50)): 0.084 µM
3 | 35 | – | CCC(C)[C@H](NS(=O)(=O)c1ccc2oc3ccccc3c2c1)C(=O)NO (stereo partly shown) [Example 10, (L)-2-(Dibenzofuran-2-sulfonylamino)-3-methyl-pentanoic acid hydroxyamide] | –
4 | 0.0045 | 0.015 | CC(C)[C@H](NS(=O)(=O)c1ccc2c(c1)oc1ccccc12)C(=O)O [Example 11, (L)-2-(dibenzofuran-3-sulfonylamino)-3-methyl-butyric acid] | IC50 (MMP13 (collagenase-3)): 0.047 µM; IC50 [3]: 1.8 µM; IC50 (MMP07 (matrilysin)): 5 µM
5 | 0.36 | 0.062 | CC(C)[C@H](NS(=O)(=O)c1ccc2oc3cc(-c4ccccc4)ccc3c2c1)C(=O)O [Example 17, (L)-3-Methyl-2-(7-phenyl-dibenzofuran-2-sulfonylamino)-butyric acid] | IC50 (MMP13 (collagenase-3)): 0.69 µM; IC50 (MMP07 (matrilysin)): 6 µM
6 | 1.7 | 5.4 | C[C@H](NS(=O)(=O)c1ccc2oc3ccccc3c2c1)C(=O)O [Example 4, (L)-2-(Dibenzofuran-2-sulfonylamino)-propionic acid] | –
7 | 0.61 | 0.69 | CC(C)[C@H](NS(=O)(=O)c1ccc2sc3ccccc3c2c1)C(=O)O [Example 14, (L)-2-(Dibenzothiophene-2-sulfonylamino)-3-methyl-butyric acid] | IC50 (MMP13 (collagenase-3)): 2.6 µM; IC50 (MMP07 (matrilysin)): 27 µM
8 | 2.3 | 1.5 | CCC(C)[C@H](NS(=O)(=O)c1ccc2oc3ccccc3c2c1)C(=O)O (stereo partly shown) [Example 2, (L)-2-(Dibenzofuran-2-sulfonylamino)-3-methyl-pentanoic acid] | –
9 | 9.4 | – | O=C(O)[C@H](CSC(c1ccccc1)(c1ccccc1)c1ccccc1)NS(=O)(=O)c1ccc2oc3ccccc3c2c1 [Example 8, (L)-2-(Dibenzofuran-2-sulfonylamino)-3-tritylsulfanyl-propionic acid] | –
10 | 0.47 | 0.75 | CC(C)[C@H](NS(=O)(=O)c1ccc2oc3cc(Br)ccc3c2c1)C(=O)O [Example 16, (L)-2-(7-Bromo-dibenzofuran-2-sulfonylamino)-3-methyl-butyric acid] | –
11 | 4.5 | – | O=C(O)[C@H](CS)NS(=O)(=O)c1ccc2oc3ccccc3c2c1 [Example 9, (L)-2-(Dibenzofuran-2-sulfonylamino)-3-mercapto-propionic acid] | –
12 | 0.049 | 0.185 | CC(C)[C@H](NS(=O)(=O)c1ccc2c(c1)Cc1ccccc1-2)C(=O)O [Example 12, (L)-2-(9H-Fluorene-2-sulfonylamino)-3-methyl-butyric acid] | IC50 (MMP13 (collagenase-3)): 0.34 µM; IC50 [3]: 32.3 µM; IC50 (MMP07 (matrilysin)): 10.8 µM
13 | 0.73 | 4.8 | O=C(O)CNS(=O)(=O)c1ccc2oc3ccccc3c2c1 [Example 6, (Dibenzofuran-2-sulfonylamino)-acetic acid] | melting point: 208 to 210 °C
14 | 1.2 | 1 | O=C(O)C[C@H](NS(=O)(=O)c1ccc2oc3ccccc3c2c1)C(=O)O [Example 7, (L)-2-(Dibenzofuran-2-sulfonylamino)-succinic acid] | melting point: 165 to 168 °C
15 | 0.32 | – | CC(C)C[C@H](NS(=O)(=O)c1ccc2oc3ccccc3c2c1)C(=O)O [Example 1, (L)-2-(Dibenzofuran-2-sulfonylamino)-4-methyl-pentanoic acid] | IC50 [3]: 66 µM
